Biological target: T1, full length GRK5 (Homo sapiens, UniProt P34947)
T1 construct: 6/2 fold concentrated full length GRK5 (Millipore, #14-714) in reaction buffer; purchased Millipore 14-714
Assay: GRK5 kinase activity assay, ADP Glo Kinase Assay technology (Promega)
Type: biochemical
Conditions: group II; for inhibition at 5 µM: final assay concentration 5 μM; for IC50: ADP Glo Kinase Assay (Table 9-B)
Procedure: The maximal compound assay concentration was set to 100 μM, representing the compound assay concentration used in the primary screen.
Increasing concentrations of GRK5 are incubated together with 100 μM ATP in the absence and presence of 10 μM casein in a reaction buffer. Within this incubation non-phosphorylated casein is converted into phosphorylated casein and ATP is converted into ADP. Thereafter nonconverted ATP is digested into AMP by addition of the ADP-Glo™ Reagent. Subsequently the ADP that is produced by GRK5 activity is phosphorylated back to ATP by addition of Promega Kinase Detection Reagent. These ATP levels serve as measure for the GRK5 activity and are quantified by a luciferase/luciferin reaction.
For GRK5 kinase activity assay, the following protocol was used:
The reaction buffer used was composed of: 20 mM MES pH 6.0, 1 mM DTT, 10 mM MgCl2, 0.01% Tween20 and the reaction volume was 6 μL.
Firstly 4 μL 6/4 fold concentrated substrate and 6/4 fold concentrated ATP in 1 fold concentrated reaction buffer are added to each well of the assay plate. Subsequently 67 nL […] concentrated test compound in 100% DMSO are added to each well except to C− and C+ wells using pin tool. Then 67 nL 100% DMSO are pipetted to C− (no kinase, no compound) and C+ (no compound) wells using pin-tool and 2 μL reaction buffer are added to C− wells. […] After incubation for 120 min. at room temperature 6 μL ADP-Glo™ Reagent (ADP Glo™ Kinase Assay Kit: Promega, V9101) are added to each well to stop the kinase reaction and deplete the unconsumed ATP. After a second incubation for 40 min. at room temperature 12 μL of Kinase Detection Reagent are added to convert ADP to ATP and start luciferase/luciferin reaction for detection of ATP. […] Finally, after incubation for 40 min at room temperature the luminescence intensity was measured.
The activity of the compounds was classified according to IC50 for binding sites of Grk5 into the following ranges:
8800 Customer compounds were screened for their ability to inhibit the enzymatic activity of GRK5. Screening was performed using the ADP Glo™ Kinase Assay technology (Promega). The small molecular weight compounds were delivered at 10 mM stock concentration and were tested at a final assay concentration of 100 μM.
IC50 values were determined in triplicates at 12 concentrations with a dilution factor of three. Triplicates were measured on three different assay plates. The maximal compound assay concentration was set to 100 μM representing the compound assay concentration used in the primary screen. A larger maximal compound assay concentration could not be achieved since the maximal compound concentration on the compound plates was 10 mM (>1% DMSO concentration in the assay).

T1 sequence (P34947 whole entry): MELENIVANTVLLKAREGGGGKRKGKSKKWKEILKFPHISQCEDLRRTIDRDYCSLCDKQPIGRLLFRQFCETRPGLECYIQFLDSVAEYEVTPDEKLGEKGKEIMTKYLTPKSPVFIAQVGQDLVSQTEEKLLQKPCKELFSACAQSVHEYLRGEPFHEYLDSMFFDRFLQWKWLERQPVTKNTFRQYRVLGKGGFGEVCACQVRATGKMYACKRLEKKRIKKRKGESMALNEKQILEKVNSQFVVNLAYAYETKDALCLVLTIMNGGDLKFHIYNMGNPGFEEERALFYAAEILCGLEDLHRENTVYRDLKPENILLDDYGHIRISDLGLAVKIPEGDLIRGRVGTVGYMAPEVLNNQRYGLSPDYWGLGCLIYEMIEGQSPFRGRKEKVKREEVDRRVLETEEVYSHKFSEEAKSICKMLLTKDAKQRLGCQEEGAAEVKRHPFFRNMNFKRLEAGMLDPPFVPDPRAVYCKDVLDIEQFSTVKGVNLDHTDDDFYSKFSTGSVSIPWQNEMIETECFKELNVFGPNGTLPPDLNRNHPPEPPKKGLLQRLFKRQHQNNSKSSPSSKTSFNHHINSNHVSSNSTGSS

Row | Compound | inhibition at 5 µM [%] | IC50 [µM]
1 | Cc1[nH]c(/C=C2\C(=O)Nc3ccc(C(=O)O)cc32)c(C)c1C(=O)NC(C)C(=O)O (stereo in doubt) [II.148, (3Z)-3-[4-(1-carboxy-(1R)-ethylcarbamoyl)-3,5-dimethyl-1H-pyrrol-2-ylmethylene]-2-oxo-2,3-dihydro-1H-indole-5-carboxylic acid] | 48 | 
2 | Cc1[nH]c(/C=C2\C(=O)Nc3ccc(C(=O)O)cc32)c(C)c1C(=O)NCCN1CCCC1 [II.2] |  | 1 to 2
3 | CC[C@H](NC(=O)c1ccc2c(c1)/C(=C/c1ccc(C(=O)N3CCN(C)CC3)cc1)C(=O)N2)c1ccccc1 [II.58, (3Z)-3-{4-[(4-methylpiperazin-1-yl)carbonyl]benzylidene}-2-oxo-N-[(1S)-1-phenylpropyl]indoline-5-carboxamide] | 96 | 
4 | Cc1[nH]c(/C=C2\C(=O)Nc3ccc(C(=O)N[C@H](C)c4ccc(Cl)cc4)cc32)c(C)c1C(=O)N1CCCCC1 [II.66, (3Z)-N-[(1R)-1-(4-chlorophenyl)ethyl]-3-{[3,5-dimethyl-4-(piperidin-1-ylcarbonyl)-1H-pyrrol-2-yl]methylene}-2-oxoindoline-5-carboxamide] | 76 | 
5 | C[C@@H](NC(=O)c1ccc2c(c1)/C(=C/Nc1ccc(CN3CCCCC3)cc1)C(=O)N2)C1CCCCC1 [II.77, (3Z)-N-[(1R)-1-cyclohexylethyl]-2-oxo-3-({[4-(piperidin-1-ylmethyl)phenyl]amino}methylene)indoline-5-carboxamide] | 98 | 
6 | CCC(NC(=O)c1ccc2c(c1)/C(=C/c1[nH]c(C)c(CCC(=O)O)c1C)C(=O)N2)c1cccc(Cl)c1 (stereo not drawn) [II.134, (3Z)-3-(5-{5-[1-(3-chloro-phenyl)-propylcarbamoyl]-2-oxo-1,2-dihydro-indol-3-ylidenemethyl}-2,4-dimethyl-1H-pyrrol-3-yl)-propionic acid] |  | 1 to 2
7 | Cc1[nH]c(/C=C2\C(=O)Nc3ccc(C(=O)O)cc32)c(C)c1C(=O)N[C@H](C)c1ccccc1 [II.137, (3Z)-3-[3,5-dimethyl-4-((1R)-1-phenyl-ethylcarbamoyl)-1H-pyrrol-2-ylmethylene]-2-oxo-2,3-dihydro-1H-indole-5-carboxylic acid] |  | 0.1 to 1

Continued, values first:

Row | inhibition at 5 µM [%] | IC50 [µM] | Compound
8 | 56 |  | Cc1[nH]c(/C=C2\C(=O)Nc3ccc(C(=O)O)cc32)c(C)c1C(=O)NC(Cc1ccccc1)C(=O)O (stereo in doubt) [II.153, (3Z)-3-[4-((1R)-1-carboxy-2-phenyl-ethylcarbamoyl)-3,5-dimethyl-1H-pyrrol-2-ylmethylene]-2-oxo-2,3-dihydro-1H-indole-5-carboxylic acid]
9 | 74 |  | CCOC(=O)c1c(C)[nH]c(/C=C2\C(=O)Nc3ccc(C(=O)N[C@@H](Cc4ccccc4)C(=O)OC)cc32)c1C [II.157, (3Z)-5-[5-((1S)-1-methoxycarbonyl-2-phenyl-ethylcarbamoyl)-2-oxo-1,2-dihydro-indol-3-ylidenemethyl]-2,4-dimethyl-1H-pyrrole-3-carboxylic II. acid ester ethyl]
10 | 81 |  | COC(=O)CC[C@H](NC(=O)c1c(C)[nH]c(/C=C2\C(=O)Nc3ccc(C(=O)N[C@@H](Cc4ccccc4)C(=O)OC)cc32)c1C)C(=O)OC [II.167, (3Z)-2-({5-[5-((1S)-1-methoxycarbonyl-2-phenyl-ethylcarbamoyl)-2-oxo-1,2-dihydro-indol-3-ylidenemethyl]-2,4-dimethyl-1H-pyrrole-3-carbonyl}-amino)-(S)-pentanedioic acid dimethyl ester]
11 | 58 |  | COc1ccc([C@@H](C)NC(=O)c2ccc3c(c2)/C(=C/c2[nH]c(C)cc2C)C(=O)N3)cc1 [II.170, (3Z)-3-(3,5-dimethyl-1H-pyrrol-2-ylmethylene)-2-oxo-2,3-dihydro-1H-indole-5-carboxylic acid [(1R)-1-(4-methoxy-phenyl)-ethyl]-amide]
12 | 49 |  | CC[C@@H](NC(=O)c1ccc2c(c1)/C(=C/c1[nH]c(C)c(C(=O)N3CCN(C4CCN(C)CC4)CC3)c1C)C(=O)N2)c1ccccc1 [II.181, (3Z)-3-{3,5-dimethyl-4-[4-(1-methyl-piperidin-4-yl)-piperazine-1-carbonyyl]-1H-pyrrol-2-ylmethylene}-2-oxo-2,3-dihydro-1H-indole-5-carboxylic acid ((1R)-1-phenyl-propyl)-amide]
13 | 76 |  | Cc1[nH]c(/C=C2\C(=O)Nc3ccc(C(=O)NCc4c(F)ccc(Cl)c4F)cc32)c(C)c1C(=O)N1CCC[C@H]1CN1CCCC1 [II.187, (3Z)-3-[3,5-dimethyl-4-((2S)-2-pyrrolidin-1-ylmethyl-pyrrolidine-1-carbonyl)-1H-pyrrol-2-ylmethylene]-2-oxo-2,3-dihydro-1H-indole-5-carboxylic acid 3-chloro-2,6-difluoro-benzylamide]
14 | 98 |  | Cc1[nH]c(/C=C2\C(=O)Nc3ccc(C(=O)NCc4c(F)cccc4F)cc32)c(C)c1C(=O)N1CCC[C@H]1CN1CCCC1 [II.189, (3Z)-3-[3,5-dimethyl-4-((2S)-2-pyrrolidin-1-ylmethyl-pyrrolidine-1-carbonyl)-1H-pyrrol-2-ylmethylene]-2-oxo-2,3-dihydro-1H-indole-5-carboxylic acid 2,6-difluoro-benzylamide]
15 | 61 |  | Cc1[nH]c(/C=C2\C(=O)Nc3ccc(C(=O)NCc4c(F)cccc4F)cc32)c(C)c1C(=O)N1CC[C@H](N(C)C)C1 [II.190, (3Z)-3-[4-((3S)-3-dimethylamino-pyrrolidine-1-carbonyl)-3,5-dimethyl-1H-pyrrol-2-ylmethylene]-2-oxo-2,3-dihydro-1H-indole-5-carboxylic acid 2,6-difluoro-benzylamide]
16 | 66 |  | Cc1[nH]c(/C=C2\C(=O)Nc3ccc(C(=O)NCc4c(F)cccc4F)cc32)c(C)c1C(=O)N1CCC[C@@H]1CN1CCCC1 [II.191, (3Z)-3-[3,5-dimethyl-4-((2R)-2-pyrrolidin-1-ylmethyl-pyrrolidine-1-carbonyl)-1H-pyrrol-2-ylmethylene]-2-oxo-2,3-dihydro-1H-indole-5-carboxylic acid 2,6-difluoro-benzylamide]
17 | 86 |  | Cc1[nH]c(/C=C2\C(=O)Nc3ccc(C(=O)NCc4c(F)cccc4F)cc32)c(C)c1C(=O)NCCN1CCCCC1 [II.192, (3Z)-3-[3,5-dimethyl-4-(2-piperidin-1-yl-ethylcarbamoyl)-1H-pyrrol-2-ylmethylene]-2-oxo-2,3-dihydro-1H-indole-5-carboxylic acid 2,6-difluoro-benzylamide]
18 | 88 |  | COc1ccc([C@@H](C)NC(=O)c2ccc3c(c2)/C(=C/c2c[nH]c4ccccc24)C(=O)N3)cc1 [II.193, (3Z)-3-(1H-indol-3-ylmethylene)-2-oxo-2,3-dihydro-1H-indole-5-carboxylic acid [(1R)-1-(4-methoxy-phenyl)-ethyl]-amide]

Reference: US9458463B2, “Method for treatment of diabetes by a small molecule inhibitor for GRK5” (MAX-PLANCK-GESELLSCHAFT ZUR FÖRDERUNG DER WISSENSCHAFTEN …, priority 2010, dated 2016)
